This note sets out measurements from patent US6489324B2, “Piperazine compounds as inhibitors of MMP or TNF” (Fujisawa Pharmaceutical Co., Ltd., priority 1996, dated 2002).

For one series, the target named is T1, Human collagenase (Homo sapiens, UniProt P03956).
T1 construct: endogenous in cells; host or cells: human skin fibroblasts stimulated with interleukin-1β
T1 sequence (P03956 100-469): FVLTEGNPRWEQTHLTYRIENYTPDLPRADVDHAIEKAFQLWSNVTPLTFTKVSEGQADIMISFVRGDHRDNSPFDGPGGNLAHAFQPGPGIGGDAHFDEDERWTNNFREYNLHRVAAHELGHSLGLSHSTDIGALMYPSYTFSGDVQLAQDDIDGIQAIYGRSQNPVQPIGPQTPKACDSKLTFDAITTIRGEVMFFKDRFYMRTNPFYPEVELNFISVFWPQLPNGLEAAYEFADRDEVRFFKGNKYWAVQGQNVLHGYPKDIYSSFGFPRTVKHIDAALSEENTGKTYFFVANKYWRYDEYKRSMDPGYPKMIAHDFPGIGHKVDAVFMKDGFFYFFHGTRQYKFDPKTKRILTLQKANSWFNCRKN
As to the kind of experiment: Inhibitory Activity of Collagenase. The format is biochemical. The settings on record: at 1 × 10^−6M; activated collagenase from human skin fibroblast culture medium, FTTC-labeled calf skin type I collagen, 37° C., 120 minutes. As for the experimental part:
Human collagenase was prepared from the culture medium of human skin fibroblast stimulated with interleukin-1β (1 ng/ml). Latent collagenase was activated by incubation with trypsin (200 μg/ml) at 37° C. for 60 minutes and the reaction was stopped by adding soybean trypsin inhibitor (800 μg/ml). Collagenase activity was determined using FTTC-labeled calf skin type I collagen. FTTC-collagen (2.5 mg/ml) was incubated at 37° C. for 120 minutes with the activated collagenase and test compound in 50 mM Tris buffer (containing 5 mM CaCl2, 200 mM NaCl and 0.02% NaN3, pH 7.5). After stopping the enzyme reaction by adding the equal volume of 70% ethanol-200 mM Tris buffer (pH 9.5), the reaction mixture was centrifuged, and collagenase activity was estimated by measuring the fluorescence intensity of supernatant at 495 nm (excitation) and 520 nm (emission).

In the case of `O=C(NO)[C@H]1CN(C(=O)NC2CCCCC2)CCN1S(=O)(=O)c1ccc(-c2ccc(F)cc2)s1` [Example 109, (2R)-4-[(N-Cyclohexyl)aminocarbonyl]-1-[5-(4-fluorophenyl)-thiophene-2-sulfonyl]-N-hydroxy-2-piperazinecarboxamide], the melting point (commonly the temperature of the solid-liquid transition) is 111 to 123 °C.
Compound `CN(C)S(=O)(=O)N1CCN(S(=O)(=O)c2ccc(-c3ccc(CC#N)cc3)s2)[C@@H](C(=O)NO)C1` [Example 173, (2R)-1-[5-(4-Cyanomethylphenyl)thiophene-2-sulfonyl)-4-(N,N-dimethylaminosulfonyl)-N-hydroxy-2-piperazinecarboxamide] had a melting point of 170 to 172 °C.
Still for that read-out and setting: under `CS(=O)(=O)NCCS(=O)(=O)N1CCN(S(=O)(=O)c2ccc(-c3ccc(C(F)(F)F)cc3)s2)[C@@H](C(=O)NO)C1` [Example 181, (2R)-N-Hydroxy-4-(2-(methanesulfonylamino)ethanesulfonyl]-1-[5-(4-trifluoromethylphenyl)thiophene-2-sulfonyl]-2-piperazinecarboxamide] stands 105 to 108 °C; under `CCN(C)S(=O)(=O)[C@@]1(C(=O)NO)CNCCN1S(=O)(=O)c1ccc(-c2ccc(Cl)cc2)s1` [Example 162, (2R)-1-[5-(4-Chlorophenyl)thiophene-2-sulfonyl]-N-hydroxy-2-(N-methylethylaminosulfonyl)-2-piperazinecarboxamide], 170 to 172 °C.
Same read-out and setting: the value for `CN(C)S(=O)(=O)N1CCN(S(=O)(=O)c2ccc(Oc3ccccc3)cc2)[C@@H](C(=O)NO)C1` [Example 176, (2R)-4-(N,N-Dimethylaminosulfonyl)-N-hydroxy-1-(4-phenoxybenzenesulfonyl)-2-piperazinecarboxamide] was 153 to 155 °C; that for `CS(=O)(=O)N1CCN(S(=O)(=O)c2ccc(-c3cccs3)cc2)[C@@H](C(=O)NOC2CCCCO2)C1` (stereo partly drawn) [Example 61, (2R)-4-Methanesulfonyl-1-[4-(thiophen-2-yl)benzenesulfonyl]-N-(2-tetrahydropyranyloxy)-2-piperazinecarboxamide] was 194 to 195 °C; that for `O=C(NO)[C@H]1CN(C(=O)Nc2ccccc2)CCN1S(=O)(=O)c1ccc(-c2ccc(F)cc2)s1` [Example 108, (2R)-1-[5-(4-Fluorophenyl)thiophene-2-sulfonyl]-N-hydroxy-4-[(N-phenyl)aminocarbonyl]-2-piperazinecarboxamide] was 187 to 188 °C.
Still for that read-out and setting: under `O=C(NO)[C@H]1CN(S(=O)(=O)CCc2ccccn2)CCN1S(=O)(=O)c1ccc(-c2ccccc2)s1` [Example 106, (2R)-N-Hydroxy-1-(5-phenylthiophene-2-sulfonyl)-4-[2-(2-pyridyl)-ethanesulfonyl]-2-piperazinecarboxamide] stands 170 to 174 °C; under `CS(=O)(=O)N1CCN(S(=O)(=O)/C=C/c2ccccc2)[C@@H](C(=O)NO)C1` [Example 189, (2R)-N-Hydroxy-1-(2-phenyl-2-trans-ethenylsulfonyl)-4-methanesulfonyl-2-piperazinecarboxamide], 94 to 99 °C.
In the case of `CS(=O)(=O)N1CCN(S(=O)(=O)c2ccc([N+](=O)[O-])cc2)[C@@H](C(=O)NO)C1` [Example 5, (2R)-1-(4-nitrobenzenesulfonyl)-4-methanesulfonylpiperazine-2-(N-hydroxy)carboxamide], the Inhibitory activity on Human collagenase was 95.3% at 1 × 10^−6M.
`O=C(NO)[C@H]1CN(S(=O)(=O)c2ccc(-c3ccon3)s2)CCN1S(=O)(=O)c1ccc(-c2ccccc2)s1` [Example 139, (2R)-N-Hydroxy-4-[5-(isoxazol-3-yl)thiophene-2-sulfonyl]1-(5-phenylthiophene-2-sulfonyl)-2-piperazinecarboxamide]: the melting point came to 204 °C.
The same measure, in the same setting: under `CS(=O)(=O)NCCS(=O)(=O)N1CCN(S(=O)(=O)c2ccc(-c3ccc(Cl)cc3)s2)[C@@H](C(=O)NO)C1` [Example 182, (2R)-1-[5-(4-Chlorophenyl)thiophene-2-sulfonyl]-N-hydroxy-4-[2-(methanesulfonylamino)ethanesulfonyl]-2-piperazinecarboxamide] stands 118 to 122 °C.
